Assay results: patent US20110124626A1, “BENZAZEPINE DERIVATIVES AND THEIR USE AS HISTAMINE H3 ANTAGONISTS” (TAKEDA PHARMACEUTICAL COMPANY LIMITED, priority 2008, published 2011)

What follows are molecules tested against T1, human H3 receptor (Homo sapiens, UniProt Q9Y5N1) (assay: In vitro H3 functional assay (cAMP response element driven luciferase reporter)). Conditions: CHO(dhfr+)-cre-luc cells expressing human H3 receptor; RαMH 10 nM, forskolin 1 μM; read-out: hH3 functional IC50.
T1 construct: expressed in transfected cells
T1 sequence (Q9Y5N1 whole entry): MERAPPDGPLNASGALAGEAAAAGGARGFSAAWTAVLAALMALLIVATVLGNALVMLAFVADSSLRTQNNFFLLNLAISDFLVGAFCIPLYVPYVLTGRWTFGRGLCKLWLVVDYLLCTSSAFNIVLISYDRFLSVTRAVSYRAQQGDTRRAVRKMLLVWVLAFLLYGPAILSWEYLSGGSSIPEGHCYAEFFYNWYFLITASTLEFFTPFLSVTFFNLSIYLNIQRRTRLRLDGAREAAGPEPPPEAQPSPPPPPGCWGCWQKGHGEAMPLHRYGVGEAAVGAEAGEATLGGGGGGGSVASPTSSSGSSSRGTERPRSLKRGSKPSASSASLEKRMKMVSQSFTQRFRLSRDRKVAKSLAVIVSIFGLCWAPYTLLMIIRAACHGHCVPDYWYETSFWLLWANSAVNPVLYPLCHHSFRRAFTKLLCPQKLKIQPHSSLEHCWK
Type: cell-based
Experimental: The functional activity of compounds at the H3 receptor was determined by measuring changes in the level of intracellular cAMP using a cAMP response element driven luciferase reporter assay. The changes in luciferase expression were monitored by a luminescence plate reader, Analyst HT (MDS Analytical). Increases in intracellular cAMP were readily detected upon activation of protein kinase A by forskolin (Sigma) and suppression of this response observed with the application of the H3 receptor agonist RαMH (Sigma).
CHO(dhfr^+)-cre-luc cells stably expressing human H3 receptor were routinely grown as monolayers in Minimal Essential Medium α (MEMα) (Invitrogen) supplemented with 10% dialysed FBS (Hyclone), in 5% CO2 at 37° C. 48 hours prior to assay, cells were seeded in clear-base white walled 384-well plates (Corning) at a density of 5000 cells/well. On the day of assay, growth media was removed and replaced with […] of assay buffer (MEMα, 5 mg/ml fatty acid free BSA (Sigma)) per well. Cells were then incubated for 30 minutes at 37° C., 5% CO2. Compound was serially diluted in DMSO before being diluted 1:10 with assay buffer. 2.5 of compound diluted in assay buffer was added and cells incubated for 5 minutes at 37° C., 5% CO2. 2.5 μl of each reagent was then added in the following order: RαMH (10 nM), isobutylmethylxanthine (1-methyl-3-(2-methylpropyl)-7H-purine-2,6-dione; IBMX) (500 μM) (Sigma) and forskolin (1 μM). Cells were then incubated for 90 minutes at 37° C., 5% CO2, followed by 30 minutes at room temperature. At the end of incubation 25 μl of Steadylite reagent (Perkin Elmer) was added, plates were sealed and placed on a shaker for 5 minutes. The level of light output to determine the level of luciferase expression was then measured.
IC50 values for compounds were determined from ten point half log scale dose-response studies and represent the concentration of compound required to […] 50% inhibition of forskolin stimulated cells in the presence of RαMH alone. Curves were generated using the average of duplicate wells for each data point and analyzed using nonlinear regression of four parameter dose response.

Row | IC50 [nM] | Compound
1 | 10 | COc1ccc(C(=O)NCc2ccc3c(c2)CCN(C2CC(O)C2)CC3)cn1 (centres unmarked) [Example 262, N-((3-(3-hydroxycyclobutyl)-2,3,4,5-tetrahydro-1H-benzo[d]azepin-7-yl)methyl)-6-methoxynicotinamide]

Each molecule was assayed against T1, human H3 receptor (assay: In vitro H3 binding assay (3H-N-α-methyl-histamine competition binding)). Conditions: membranes of CHO-K1 cells expressing human H3 receptor; 2 nM 3H-NαMH; read-out: hH3 binding IC50.
Experimental: The ability of compounds to bind to the H3 receptor was determined by measuring the reduction in tritiated N-α-methyl-histamine (^3H—NαMH) binding in a competition binding assay. Changes in the levels of bound radio-label were monitored by scintillation counting with a Trilux Microbeta (Perkin Elmer).
Membranes were prepared from CHO-K1 cells stably expressing human H3 receptor; routinely grown as monolayers in Ham's F12 medium (Invitrogen) supplemented with 10% Foetal Clone 111 (Hyclone), 500 μg/ml G418 (Invitrogen), 5 μg/ml blasticidine S (Invivogen) and […] Gentamicin (Sigma) in 5% CO2 at 37° C. Cells were grown to 80-95% confluency, rinsed once with 1×PBS (Invitrogen) and detached by incubating with 1×PBS containing 0.02% EDTA (Sigma) for 10 minutes at room temperature. Cells were collected by centrifugation at 900×g, 4° C. for 10 minutes. Cells were rinsed once with 1×PBS and re-suspended in ice cold homogenisation buffer (50 mM Tris-HCl (pH 7.4), 2.5 mM EDTA, 5 mM MgCl2, 200 mM Sucrose) at 1×10^7 cells/ml and kept on ice. Cells were homogenised on ice and debris removed by centrifugation at 500×g, 4° C. for 5 minutes. The resulting supernatant was centrifuged at 75,600×g, 4° C. for 60 minutes. Membranes were suspended in homogenisation buffer, protein concentration was determined (BCA Protein Assay kit (Pierce)), diluted to 2.2 mg/ml, dispensed into 1 ml aliquots and stored at −80° C.
Membranes were thawed on ice, sonicated with 4 cycles of 20 pulses (50% amplitude, 0.5 pulse) (UP200S Hielscher) on ice, diluted in assay buffer (50 mM Tris-HCl (pH7.4), 5 mM MgCl2) to 62.5 μg/ml. Compound was serially diluted in DMSO before being diluted 1:10 with assay buffer. 5 μg of membrane in 80 μl of assay buffer was added per well of a 96 well polystyrene plate (Corning). […] of compound was added per well. The assay was initiated by the addition of 10 μl of 20 nM ^3H—NαMH per well and incubated for one hour at room temperature with shaking. Total binding was determined in the presence of 1% DMSO and non-specific binding was determined by the inclusion of 1 μM R-α-methyl-histamine (RαMH). Incubations were then filtered through filtermat A (Perkin Elmer) and washed three times with assay buffer. Filtermats were dried at 42° C. for two hours, scintillant added and the level of bound radioactivity determined.
IC50 values for compounds were determined from seven point log scale dose-response studies and represent the concentration of compound required to inhibit 50% of the specific binding of 2 nM ^3H—NαMH (difference between total and non-specific binding). Curves were generated using the average of duplicate wells for each data point and analyzed using nonlinear regression of sigmoidal dose response (variable slope).

Row | Compound | IC50 [nM]
2 | COc1ccc(C(=O)NCc2ccc3c(c2)CCN(C2CC(O)C2)CC3)cn1 (centres unmarked) [Example 262, N-((3-(3-hydroxycyclobutyl)-2,3,4,5-tetrahydro-1H-benzo[d]azepin-7-yl)methyl)-6-methoxynicotinamide] | 25
3 | Cc1oc(-c2ccccc2)nc1CNC(=O)c1ccc2c(c1)CCN(C1CCC1)CC2 [Example 85, 3-Cyclobutyl-N-((5-methyl-2-phenyloxazol-4-yl)methyl)-2,3,4,5-tetrahydro-1H-benzo[d]azepine-7-carboxamide] | 14
4 | COC(=O)c1ccc(CNC(=O)c2ccc3c(c2)CCN(C2CCC2)CC3)cc1 [Example 50, Methyl 4-((3-cyclobutyl-2,3,4,5-tetrahydro-1H-benzo[d]azepine-7-carboxamido)methyl)benzoate] | 24
5 | O=C(NCc1ccccc1)c1ccc2c(c1)CCN(C1CCCC1)CC2 [Example 19, N-Benzyl-3-cyclopentyl-2,3,4,5-tetrahydro-1H-benzo[d]azepine-7-carboxamide] | 20
6 | CC(C)NC(=O)c1ccc2c(c1)CCN(C1CCC1)CC2 [Example 26, 3-Cyclobutyl-N-isopropyl-2,3,4,5-tetrahydro-1H-benzo[d]azepine-7-carboxamide] | 36
7 | Cc1occc1CNC(=O)c1ccc2c(c1)CCN(C1CCC1)CC2 [Example 90, 3-cyclobutyl-N-((2-methylfuran-3-yl)methyl)-2,3,4,5-tetrahydro-1H-benzo[d]azepine-7-carboxamide] | 10
8 | O=C(NCC1CCN(C2CCC2)CC1)c1ccc2c(c1)CCN(C1CCC1)CC2 [Example 11, 3-Cyclobutyl-N-((1-cyclobutylpiperidin-4-yl)methyl)-2,3,4,5-tetrahydro-1H-benzo[d]azepine-7-carboxamide] | 30
9 | O=C(NCc1ccccc1C(F)(F)F)c1ccc2c(c1)CCN(C1CCC1)CC2 [Example 57, 3-Cyclobutyl-N-(2-(trifluoromethyl)benzyl)-2,3,4,5-tetrahydro-1H-benzo[d]azepine-7-carboxamide] | 12
10 | O=C(NCc1ccccc1Br)c1ccc2c(c1)CCN(C1CCC1)CC2 [Example 54, N-(2-Bromobenzyl)-3-cyclobutyl-2,3,4,5-tetrahydro-1H-benzo[d]azepine-7-carboxamide] | 10
11 | CCn1cc(CNC(=O)c2ccc3c(c2)CCN(C2CCC2)CC3)cn1 [Example 95, 3-Cyclobutyl-N-((1-ethyl-1H-pyrazol-4-yl)methyl)-2,3,4,5-tetrahydro-1H-benzo[d]azepine-7-carboxamide] | 18
12 | Cc1nn(C)c(C)c1CNC(=O)c1ccc2c(c1)CCN(C1CCC1)CC2 [Example 96, 3-Cyclobutyl-N-((1,3,5-trimethyl-1H-pyrazol-4-yl)methyl)-2,3,4,5-tetrahydro-1H-benzo[d]azepine-7-carboxamide] | 18
13 | CCn1cc(Cl)c(CNC(=O)c2ccc3c(c2)CCN(C2CCC2)CC3)n1 [Example 106, N-((4-chloro-1-ethyl-1H-pyrazol-3-yl)methyl)-3-cyclobutyl-2,3,4,5-tetrahydro-1H-benzo[d]azepine-7-carboxamide] | 13
14 | O=C(NCc1ncc[nH]1)c1ccc2c(c1)CCN(C1CCC1)CC2 [Example 113, N-((1H-Imidazol-2-yl)methyl)-3-cyclobutyl-2,3,4,5-tetrahydro-1H-benzo[d]azepine-7-carboxamide] | 13

The next molecules have a lower IC50 than those just listed; values first:

Row | IC50 [nM] | Compound
15 | 9 | O=C(NCCc1ccccc1)c1ccc2c(c1)CCN(C1CCC1)CC2 [Example 38, 3-Cyclobutyl-N-phenethyl-2,3,4,5-tetrahydro-1H-benzo[d]azepine-7-carboxamide]
16 | 9 | COc1ccc(NC(=O)Cc2ccc3c(c2)CCN(C2CCC2)CC3)cn1 [Example 274, 2-(3-cyclobutyl-2,3,4,5-tetrahydro-1H-benzo[d]azepin-7-yl)-N-(6-methoxypyridin-3-yl)acetamide]
17 | 6 | O/N=C(\CCc1ccccc1)c1ccc2c(c1)CCN(C1CCC1)CC2 [Example 132, 1-(3-cyclobutyl-2,3,4,5-tetrahydro-1H-benzo[d]azepin-7-yl)-3-phenylpropan-1-one oxime]
18 | 6 | O=C(NCc1ccccc1Cl)c1ccc2c(c1)CCN(C1CCC1)CC2 [Example 63, N-(2-Chlorobenzyl)-3-cyclobutyl-2,3,4,5-tetrahydro-1H-benzo[d]azepine-7-carboxamide]
19 | 4 | O=C(NCc1cccc(Cl)c1)c1ccc2c(c1)CCN(C1CCC1)CC2 [Example 65, N-(3-Chlorobenzyl)-3-cyclobutyl-2,3,4,5-tetrahydro-1H-benzo[d]azepine-7-carboxamide]
20 | 4 | O=C(NCc1cccs1)c1ccc2c(c1)CCN(C1CCC1)CC2 [Example 87, 3-Cyclobutyl-N-(thiophen-2-ylmethyl)-2,3,4,5-tetrahydro-1H-benzo[d]azepine-7-carboxamide]
21 | 3 | C[C@H](O)CNc1ccc(C(=O)NCc2ccc3c(c2)CCN(C2CCC2)CC3)cn1 [Example 290, (S)—N-((3-cyclobutyl-2,3,4,5-tetrahydro-1H-benzo[d]azepin-7-yl)methyl)-6-(2-hydroxypropylamino)nicotinamide]
22 | 1 | O=C(NCc1ccc2c(c1)CCN(C1CCC1)CC2)c1ccc(NC2CCOC2)nc1 (centres unmarked) [Example 282, N-[(3-cyclobutyl-2,3,4,5-tetrahydro-1H-3-benzazepin-7-yl)methyl]-6-(tetrahydrofuran-3-ylamino)pyridine-3-carboxamide]
23 | 1 | O=C(NCc1ccc2c(c1)CCN(C1CC(O)C1)CC2)c1ccc(N2CCCC2)nc1 (centres unmarked) [Example 287, N-((3-(3-hydroxycyclobutyl)-2,3,4,5-tetrahydro-1H-benzo[d]azepin-7-yl)methyl)-6-(pyrrolidin-1-yl)nicotinamide]
24 | 1 | CN(Cc1ccc2c(c1)CCN(C1CCC1)CC2)C(=O)c1cnc(N2CCCC2)nc1 [Example 313, N-((3-cyclobutyl-2,3,4,5-tetrahydro-1H-benzo[d]azepin-7-yl)methyl)-N-methyl-2-(pyrrolidin-1-yl)pyrimidine-5-carboxamide]
25 | 0.9 | C[C@@H](O)CN(C)c1ccc(C(=O)NCc2ccc3c(c2)CCN(C2CCC2)CC3)cn1 [Example 316, (R)—N-((3-cyclobutyl-2,3,4,5-tetrahydro-1H-benzo[d]azepin-7-yl)methyl)-6-((2-hydroxypropyl)(methyl)amino)nicotinamide]
26 | 0.8 | O=C(NCc1ccc2c(c1)CCN(C1CCC1)CC2)c1ccc(O[C@H]2CCOC2)nc1 [Example 281, N-[(3-cyclobutyl-2,3,4,5-tetrahydro-1H-3-benzazepin-7-yl)methyl]-6-[(3S)-tetrahydrofuran-3-yloxy]pyridine-3-carboxamide]
